Reference: US20250302780A1, “METHOD OF TREATING PREMATURE EJACULATION IN HUMAN MALES WITHOUT SYMPTOMS OF BENIGN PROSTATIC HYPERTROPHY (BPH) USING TAMSULOSIN 0.2MG QOD WHICH DELAYS EJACULATION BY REDUCING THE RATE OF SECRETION AND TRANSPORT BY SEMINAL VESICLES AND PROSTATE IN THE GENITOURINARY TRACT” (Wustashire, priority 2024, published 2025)
Like-named read-outs stand apart in the source and are kept apart here.

Legend:
[1] = cited from earlier work
[2] = 0.2 mg QD, after 8 weeks (Zhang et al.); cited from earlier work
[3] = Focused analysis of published BPH/LUTS studies: risk of abnormal ejaculation (anejaculation or significantly reduced ejaculate) with tamsulosin; format: in vivo, human
Description: To objectively determine an effective tamsulosin dose for treating premature ejaculation in patients without benign prostatic hypertrophy (BPH), a focused analysis of relevant well designed research studies that examined the abnormal ejaculation side effects of tamsulosin in BPH treatment based on combined data derived from multiple sources was conducted (www.accessdata.fda.gov, n.d.; Soliman et al, 2023; Shim et al., 2016). […] These studies focused on evaluating tamsulosin treatment outcomes in patients with BPH and lower urinary tract symptoms (LUTS). The analysis leveraged the identical mechanism of action of tamsulosin in both BPH/LUTS and premature ejaculation with respect to non-vascular smooth muscle relaxation in the genitourinary tract.
The graph plots administered tamsulosin quantity in mg on the x-axis against the calculated percentage risks of these dysfunctional sequelae on the y-axis.
Further, the FIG. 4 illustrates test data on calculated risk of abnormal or adverse ejaculatory side effects at different dosages. […] Quantitative data points are shown for tamsulosin at doses of 0.8 mg, 0.4 mg, and 0.2 mg taken either on a daily (QD) basis or every other day (QOD).

[4] = cited from earlier work; remark: listed apart in the source

With CCOc1ccccc1OCCN[C@H](C)Cc1ccc(OC)c(S(N)(=O)=O)c1 [tamsulosin] as the molecule, how does the “risk of abnormal or adverse ejaculatory side effects” value ([1]; 0.4 mg QD (daily)) read?
Its value is 8.4%.

What about the “abnormal ejaculatory risk reduction” value ([1]; 0.4 mg converted from QD to QOD (Soliman et al.)) of the same molecule?
The value was 5 fold.

What about the “risk of abnormal or adverse ejaculatory side effects” value ([1]; 0.8 mg QD (daily)) of the same molecule?
Its value is 18.1%.

What about the “increase of intravaginal ejaculation latency time (IELT)” value [2] of the same molecule?
Its value is 1.14 min.

And the “risk of adverse events” value [2]?
Its value is 2.6%.

And the “risk of ejaculatory sequelae” value ([3]; 0.4 mg QOD (every other day), calculated from 5-fold reduction)?
Its value is 1.68%.

What about the “drop in abnormal ejaculatory risk likelihood” value ([3]; dose reduction 0.4 mg QD to 0.2 mg QD) of the same molecule?
The value was roughly 2.15 fold.

And the “reduction of projected abnormal ejaculatory risk” value ([3]; halving 0.8 mg QD to 0.4 mg QD)?
The value was 53.6%.

And the “efficacy for mild to moderate BPH symptoms” value ([4]; 0.2 mg QD (Shim et al.))?
The value was “effective”.

And the “therapeutic efficacy of QD dosing versus alternating day dosing” value ([4]; QD vs alternating day (Soliman et al.))?
The value was “clinically similar”.
